Values after ≈ are worked out from the molar mass of the structure shown. Like-named read-outs stand apart in the source and are kept apart here. Numbered stars: 1 amine (or outer) side, 2 acyl side, 3 side chain; on linkers, the order of the positions; unused ones are H or OH. Square brackets hold non-standard residues; d marks the D form. Peptide text beside a SMILES is read from it. N(tridecyl)Gly = CCCCCCCCCCCCCNCC(=O)O; X1 = CC(c1ccccc1)N(CC(=O)[*:2])[*:1]; NFurfurylGly = O=C(O)CNCc1ccco1; Gly(N(CH2)3NH2) = NCCCNCC(=O)O; Nphe = O=C(O)CNCc1ccccc1; NPrGly = CCCNCC(=O)O; Nlys = NCCCCNCC(=O)O

Assay [1] deals with Gram-negative and Gram-positive bacteria. The assay is classed as cell-based. The conditions noted are these: with the exception of K. pnuemoniae. The source says: The ESKAPE bacteria consist of the most common multidrug resistant and nosocomial bacterial pathogens including both Gram-positive and Gram-negative species (Pendleton et al., Expert Rev. Anti-infect. Ther. 11, 297-308 (2013)). […] The broad-spectrum antimicrobial activity of RMG9-11 naturally lead to concerns about mammalian cytotoxicity, especially since the membranes of fungi and mammals have similar phospholipid compositions.
The minimum inhibitory concentration (MIC) of peptoids against the ESKAPE bacteria (Enterococcus faecium ATCC 6569; Staphylococcus aureus ATCC 29213; Klebsiella pneumoniae ATCC 13883; Acinetobacter baumanii ATCC 19606; Pseudomonas aeruginosa ATCC 25619; Enterococcus faecalis ATCC 29212; and Escherichia coli ATCC 25922) was determined following CLSI guidelines (CLSI. Methods for Dilution Antimicrobial Susceptibility Tests for Bacteria That Grow Aerobically, 11th Edition. Clinical and Laboratory Standards Institute, 2018). The MIC against Mycobacterium smegmatis was also determined following CLSI guidelines (Woods, G. L. et al. Susceptibility Testing of Mycobacteria, Nocardiae, and Other Aerobic Actinomycetes, 2nd edition. (2011)). […] Following incubation for the ESKAPE bacteria, PRESTO BLUE (10 μL) was added to each well and incubated at 37° C. for one hour before measuring fluorescence on a SPECTRAMAX M5 plate reader (Ex. 555 nm; Em. 585 nm). […]

Assay [2] deals with Klebsiella pneumoniae ATCC 13883. Put plainly: Bacterial MIC assay, K. pneumoniae. The assay is classed as cell-based. The conditions noted are these: 24 h, CAMHB. An excerpt:
This screening led to the discovery of RMG9-11 (FIG. 2C). The minimum inhibitory concentration (MIC) of resynthesized RMG9-11 was initially determined against C. albicans, C. neoformans, and the ESKAPE bacteria via CSLI guidelines (CLSI. Methods for Dilution Antimicrobial Susceptibility Tests for Bacteria That Grow Aerobically, 11th Edition. Clinical and Laboratory Standards Institute (2018); CLSI. Reference method for broth dilution antifungal susceptibility testing of yeasts; approved standard-third edition; CLSI document M27-A3. Clinical and Laboratory Standards Institute (2008)). […]
The minimum inhibitory concentration (MIC) of peptoids against the ESKAPE bacteria (Enterococcus faecium ATCC 6569; Staphylococcus aureus ATCC 29213; Klebsiella pneumoniae ATCC 13883; Acinetobacter baumanii ATCC 19606; Pseudomonas aeruginosa ATCC 25619; Enterococcus faecalis ATCC 29212; and Escherichia coli ATCC 25922) was determined following CLSI guidelines (CLSI. Methods for Dilution Antimicrobial Susceptibility Tests for Bacteria That Grow Aerobically, 11th Edition. Clinical and Laboratory Standards Institute, 2018). The MIC against Mycobacterium smegmatis was also determined following CLSI guidelines (Woods, G. L. et al. Susceptibility Testing of Mycobacteria, Nocardiae, and Other Aerobic Actinomycetes, 2nd edition. (2011)). […]

In assay [3] the test system is C. krusie. The assay is classed as cell-based, Candida krusie.
The test system of assay [4] is C. albicans. The assay is classed as cell-based, Candida albicans. An excerpt:
One of the most serious crises facing both new and existing antimicrobial compounds is the rapid development of resistance by pathogens to that compound, rendering it useless. This has been an issue observed with all major commercially available antimicrobial drugs and is an increasingly prevalent issue with antifungal drugs (Clatworthy et al., Nat. Chem. Biol. 3, 541-548 (2007); Wiederhold et al., Infect. Drug Resist. 10, 249-259 (2017)). The ability of C. albicans to gain resistance against RMG9-11 was evaluated using two techniques; serial and single passage. Ching et al. described a method for single passage assessment of gain of resistance, which was used here with RMG9-11 (Ching et al., Sci. Rep. 10, 8754 (2020)). Briefly, a single colony of C. albicans was incubated overnight in RPMI-MOPS. Fungal cultures were then incubated for either 24 or 48 hours with concentrations of RMG9-11 ranging from 0 to 80% MIC. […] To further solidify this finding, C. albicans were introduced to increasing concentrations of RMG9-11 through a serial passage gain of resistance assay, as described by Samuelsen et al. (Samuelsen et al., FEBS Lett. 579, 3421-3426 (2005)). […] One main difference between serial and single passage assays is in the inoculation method from one passage to the next. The single passage relies on one individual colony while the serial passage focuses on a set concentration of fungi (cells/mL). At the end of serial passage, C. albicans that had been exposed to gradually increasing concentrations of RMG9-11 were used to prepare a traditional MIC assay. In theory, if fungi had evolved resistance during serial passage with sub-MIC antifungal agent, the MIC of RMG9-11 against these fungi should increase. […] To our knowledge, this is the first evaluation of the ability of a microbe to gain resistance to a peptoid, though it has long been hypothesized that gaining resistance to peptoids is unlikely.
A second gain of resistance through single passage was done for RMG9-11 against C. albicans following previously published methods as a confirmation of serial passage results (Ching et al., Sci. Rep. 10, 8754 (2020)). A single C. albicans colony was inoculated into RPMI-MOPS (pH 7; 5 mL) and incubated overnight (200 RPM; 37° C.). […] The following day, an MIC was performed with these cell solutions to evaluate gain of resistance after 48 hours. This assay was performed with four separate streaked plates from frozen stocks for biological replicate.

Assay [5] relates to Enterococcus faecium ATCC 6569. Type of assay: cell-based. The conditions noted are these: ATCC 6569, 24 h. An excerpt: (§1) This screening led to the discovery of RMG9-11 (FIG. 2C). The minimum inhibitory concentration (MIC) of resynthesized RMG9-11 was initially determined against C. albicans, C. neoformans, and the ESKAPE bacteria via CSLI guidelines (CLSI. Methods for Dilution Antimicrobial Susceptibility Tests for Bacteria That Grow Aerobically, 11th Edition. Clinical and Laboratory Standards Institute (2018); CLSI. Reference method for broth dilution antifungal susceptibility testing of yeasts; approved standard-third edition; CLSI document M27-A3. Clinical and Laboratory Standards Institute (2008)). […] C. albicans clinical isolates include a reference strain (M1), fluconazole susceptible strains (M4 and M6), and fluconazole resistant strains (M2, M3, M5, and M7). ATCC 64124 is multidrug resistant C. albicans strain that is resistant to amphotericin B, fluconazole, caspofungin, and flucytosine. All MICs were performed under CSLI guidelines in triplicate on at least three different days.
(§2) The minimum inhibitory concentration (MIC) of peptoids against the ESKAPE bacteria (Enterococcus faecium ATCC 6569; Staphylococcus aureus ATCC 29213; Klebsiella pneumoniae ATCC 13883; Acinetobacter baumanii ATCC 19606; Pseudomonas aeruginosa ATCC 25619; Enterococcus faecalis ATCC 29212; and Escherichia coli ATCC 25922) was determined following CLSI guidelines (CLSI. Methods for Dilution Antimicrobial Susceptibility Tests for Bacteria That Grow Aerobically, 11th Edition. Clinical and Laboratory Standards Institute, 2018). The MIC against Mycobacterium smegmatis was also determined following CLSI guidelines (Woods, G. L. et al. Susceptibility Testing of Mycobacteria, Nocardiae, and Other Aerobic Actinomycetes, 2nd edition. (2011)). Colonies picked from streaked tryptic soy agar plates were added to tryptic soy broth (TSB) to achieve a turbidity of OD600=0.08-0.15. Inoculant was diluted 1:200 into cation adjust Mueller Hinton Broth (CAMHB) and 90 μL was plated into each well of a 96 well black-wall plate. 2-fold serial dilutions of 10× peptoid (10 μL) were added to each well in triplicate and incubated at 37° C. for 24 hours for the ESKAPE bacteria and 72 hours for M. smegmatis. Tetracycline (20 μg/mL) was used as a positive control with DI water was used as a vehicle control. Following incubation for the ESKAPE bacteria, PRESTO BLUE (10 μL) was added to each well and incubated at 37° C. for one hour before measuring fluorescence on a SPECTRAMAX M5 plate reader (Ex. 555 nm; Em. 585 nm). Following incubation for M. smegmatis, wells were scored following CLSI guidelines to determine MIC. This assay was repeated three times on separate days.

The test system of assay [6] is Enterococcus faecalis ATCC 29212. Type of assay: cell-based. Conditions: 24 h, CAMHB.
Text: as §1, §2

The subject of assay [7] is Escherichia coli ATCC 25922. Type of assay: cell-based. Conditions: 24 h, CAMHB.
Text: as §1, §2

Assay [8] has as its system Pseudomonas aeruginosa ATCC 25619. Type of assay: cell-based. The conditions noted are these: ATCC 25619, 24 h.
Text: as §1, §2

The test system of assay [9] is Staphylococcus aureus ATCC 29213. Type of assay: cell-based. The conditions noted are these: 24 h, CAMHB.
Text: as §1, §2

Consider `CCCCCCCCCCCCCNCC(=O)N(CCC)CC(=O)N(CC(=O)N(CCCCN)CC(=O)N(CC(=O)N(CC(=O)N(CCCN)CC(N)=O)Cc1ccccc1)Cc1ccco1)C(C)c1ccccc1` (stereo not drawn) [RMG9-11] (H-[N(tridecyl)Gly][NPrGly][X1][Nlys][NFurfurylGly][Nphe][Gly(N(CH2)3NH2)]-NH2), for which the “activity against Gram-negative and Gram-positive bacteria (MIC)” value in [1] is 3.13 to 12.5 µg/mL. The “MIC K. pneumonia” value in [2] came to 50 µg/mL (≈ 47.9 µM). Also, the “MIC C. krusie” value in assay [3] is 3.13 µg/mL (≈ 3 µM). Besides, the “Single Passage 24 h MIC” value in [4] (C. albicans pre-exposed 24 h to 0% MIC RMG9-11), in [4] (pre-exposed 24 h to 10% MIC), in assay [4] (pre-exposed 24 h to 20% MIC), in assay [4] (pre-exposed 24 h to 40% MIC), in [4] (pre-exposed 24 h to 60% MIC) and in assay [4] (pre-exposed 24 h to 80% MIC) was 6.25 µg/mL each time. Further, the “Single Passage 48 h MIC” value in assay [4] (pre-exposed 48 h to 0% MIC), in [4] (pre-exposed 48 h to 10% MIC), in [4] (pre-exposed 48 h to 20% MIC), in assay [4] (pre-exposed 48 h to 40% MIC), in assay [4] (pre-exposed 48 h to 60% MIC) and in assay [4] (pre-exposed 48 h to 80% MIC) was 6.25 µg/mL each time. Also, the “ability of C. albicans to develop resistance” value in [4] (single passage, in words) is listed as “unable to develop resistance”. Besides, in [5], the “MIC E. faecium” value is 3.13 µg/mL (≈ 3 µM). Also, in [6], the “MIC E. faecalis” value amounted to 6.25 µg/mL (≈ 5.99 µM). The “MIC E. coli” value in assay [7] turned out to be 6.25 µg/mL (≈ 5.99 µM). In assay [8], the “MIC P. aeruginosa” value was 12.5 µg/mL (≈ 12 µM). The “MIC S. aureus” value in assay [9] stood at 6.25 µg/mL (≈ 5.99 µM).

Source of the values: patent publication US20240391889A1, “ANTIMICROBIAL COMPOUNDS AND THE METHODS OF USE” (priority 2021, published 2024).
